Measurements: patent US11952344B2, “Heterocyclic compound and use thereof” (TAKEDA PHARMACEUTICAL COMPANY LIMITED, priority 2019, dated 2024)

The compounds below were run against T1, Human NMDA (NR1/NR2B) Receptor (Homo sapiens, UniProt Q13224) (assay: NR2B Ca2+ influx assay). Conditions: 10 μM compound; HEK293 cells expressing GRIN1 and GRIN2B; glutamic acid/glycine-induced Ca2+ influx, Fluo-4 fluorescence; read-out: inhibitory rate (10 μM compound concentration).
T1 construct: host or cells: HEK293
Assay type: cell-based
Source text: Experimental Example 1 NR2B Ca^2+ Influx Assay
To confirm the “antagonistic action on an NMDA receptor containing the NR2B subunit” of the compound of the present invention, human embryonic kidney cell expressing the “NMDA receptor composed of four subunits including 2 sets of heterodimers of NR1 and NR2B”, specifically HEK293 cell expressing human glutamate ionotropic receptor NMDA type subunit 1 (GRIN1) and human glutamate ionotropic receptor NMDA type subunit 2B (GRIN2B), was used and the activation suppressive effect (inhibitory activity) on the receptors by the compound of the present invention was measured.
HEK293 cells that express GRIN1 and GRIN2B were purchased from ChanTest (Human NMDA (NR1/NR2B) Receptor-expressing, stable replicating cell line (HEK293) catalog No. CT6121).
As an index of the NMDA receptor activation, intracellular calcium ion (Ca^2+) influx caused by the binding of glycine and glutamic acid with NR1 and NR2B, respectively, was used.
HEK293 cells that express GRIN1 and GRIN2B were cultured in a cell culture flask in DMEM/F-12 (COSMO BIO, 10-092-CM) medium added with 10% FBS (fetal bovine serum, AusGene), 100 units/mL penicillin, 100 μg/mL streptomycin, 500 μg/mL neomycin, 100 μg/mL Zeocin (registered trade mark, Invitrogen), 5 μg/mL Blasticidin, in an incubator (37° C., 5% CO2).
The cells were detached from flask with trypsin the day before the assay, suspended in a seeding medium (DMEM (Invitrogen, 31053) added with 10% FBS, 100 units/mL penicillin, 100 μg/mL streptomycin) at 8×10^5 cells/mL, seeded by 25 μL/well in a 384-well plate (Falcon, 356663) at 20000 cells/well, and cultured overnight in an incubator. On the day of the assay, tetracycline (Wako Pure Chemical Industries, Ltd., 209-16561) was diluted with the seeding medium at 2 μg/mL, added at 25 μL/well to the plate seeded with the cells, and cultured for 2 hr in an incubator. Thereafter, the medium was removed, and the cells were washed with 50 μL/well assay buffer (137 mM NaCl, 4 mM KCl, 1.8 mM CaCl2, 10 mM HEPES (pH 7.2), 10 mM Glucose, 0.1% BSA). Then, a loading buffer (assay buffer added with 2.5 μM Fluo-4AM, 2 mM Amaranth, 1 mM Tartrazine) was added at 25 μL/well, and incubation was performed in the incubator for 30 min, and at room temperature for 15 min. A solution (25 μL/well) of the Example compound diluted with the above-mentioned assay buffer at 30 μM (final concentration 10 μM) was added, and the cells were stood for 15 min at room temperature. Using FDSS7000EX/μCELL (Hamamatsu Photonics K.K.), 25 μL/well of an assay buffer containing 30 μM glutamic acid, 30 μM glycine was added, and the fluorescence signal at wavelength of Excitation 480 nm, Emission 540 nm was measured every 3 seconds for 5 min. The inhibitory activity was calculated as a relative activity value (inhibitory rate) that inhibits 100% of the cumulative value of the fluorescence value of a well added with an assay buffer free of glutamic acid, glycine, relative to the cumulative value of the fluorescence value of each well.

T1 sequence (Q13224 27-1484, other chains not shown): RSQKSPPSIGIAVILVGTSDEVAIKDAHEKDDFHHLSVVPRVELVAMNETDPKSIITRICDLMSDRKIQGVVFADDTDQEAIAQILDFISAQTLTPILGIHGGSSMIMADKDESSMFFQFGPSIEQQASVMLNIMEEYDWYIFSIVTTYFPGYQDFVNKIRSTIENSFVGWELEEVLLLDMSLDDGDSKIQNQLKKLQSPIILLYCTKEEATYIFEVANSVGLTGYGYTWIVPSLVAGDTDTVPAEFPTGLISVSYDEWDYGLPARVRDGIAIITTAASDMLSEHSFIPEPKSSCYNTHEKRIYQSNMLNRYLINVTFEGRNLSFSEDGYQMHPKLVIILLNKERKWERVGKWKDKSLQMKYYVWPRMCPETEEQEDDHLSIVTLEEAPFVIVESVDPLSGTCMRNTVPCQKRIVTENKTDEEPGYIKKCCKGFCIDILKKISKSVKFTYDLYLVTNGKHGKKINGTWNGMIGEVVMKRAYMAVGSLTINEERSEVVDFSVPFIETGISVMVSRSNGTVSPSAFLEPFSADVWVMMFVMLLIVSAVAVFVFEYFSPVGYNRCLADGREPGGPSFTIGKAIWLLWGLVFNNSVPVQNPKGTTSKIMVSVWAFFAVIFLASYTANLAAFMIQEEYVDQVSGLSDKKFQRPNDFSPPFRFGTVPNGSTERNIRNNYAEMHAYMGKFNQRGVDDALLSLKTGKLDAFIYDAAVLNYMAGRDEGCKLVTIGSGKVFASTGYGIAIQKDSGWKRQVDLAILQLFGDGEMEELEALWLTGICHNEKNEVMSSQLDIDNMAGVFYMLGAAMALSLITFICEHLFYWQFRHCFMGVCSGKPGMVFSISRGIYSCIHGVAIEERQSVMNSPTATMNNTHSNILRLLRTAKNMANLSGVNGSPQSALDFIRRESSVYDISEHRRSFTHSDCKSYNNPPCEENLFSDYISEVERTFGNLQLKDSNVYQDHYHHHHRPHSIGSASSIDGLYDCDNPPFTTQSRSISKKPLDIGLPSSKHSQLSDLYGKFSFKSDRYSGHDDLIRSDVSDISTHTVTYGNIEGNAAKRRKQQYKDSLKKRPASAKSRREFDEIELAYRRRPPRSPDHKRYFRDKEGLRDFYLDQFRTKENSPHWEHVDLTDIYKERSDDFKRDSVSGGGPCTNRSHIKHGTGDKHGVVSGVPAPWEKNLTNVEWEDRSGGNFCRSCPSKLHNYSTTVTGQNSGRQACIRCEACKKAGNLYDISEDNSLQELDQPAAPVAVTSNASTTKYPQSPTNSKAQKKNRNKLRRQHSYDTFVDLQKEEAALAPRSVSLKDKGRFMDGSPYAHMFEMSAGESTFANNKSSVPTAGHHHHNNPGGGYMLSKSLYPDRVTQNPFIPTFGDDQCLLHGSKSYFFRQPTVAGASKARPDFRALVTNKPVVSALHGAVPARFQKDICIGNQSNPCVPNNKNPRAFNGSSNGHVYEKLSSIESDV

SMILES	inhibition at 10 µM
CCOc1ncncc1CNC(=O)c1cnc(OC(F)F)c(F)c1 [Example 24, 6-(difluoromethoxy)-N-[(4-ethoxypyrimidin-5-yl)methyl]-5-fluoropyridine-3-carboxamide]	95%
COc1c(F)cc(C(=O)NCc2cncnc2OC2CC2)cc1F [Example 74, N-{[4-(cyclopropyloxy)-pyrimidin-5-yl]methyl}-3,5-difluoro-4-methoxybenzamide]	90%
Cc1ccncc1CNC(=O)c1cnc(C(C)(F)F)c(F)c1 [Example 93, 6-(1,1-difluoroethyl)-5-fluoro-N-[(4-methylpyridin-3-yl)methyl]pyridine-3-carboxamide]	90%
Cc1ccncc1CNC(=O)c1ccc(OC(F)(F)F)cc1 [Example 4, N-[(4-methylpyridin-3-yl)methyl]-4-(trifluoromethoxy)benzamide]	96%
CCc1ncncc1CNC(=O)c1cnc(OC(F)F)c(F)c1 [Example 28, 6-(difluoromethoxy)-N-[(4-ethylpyrimidin-5-yl)methyl]-5-fluoropyridine-3-carboxamide]	87%
COc1ncncc1CNC(=O)c1cc(F)c(OC)c(F)c1 [Example 62, 3,5-difluoro-4-methoxy-N-[(4-methoxypyrimidin-5-yl)methyl]benzamide]	87%
CCOc1ncc(C(=O)NCc2cnccc2C)cc1F [Example 45, 6-ethoxy-5-fluoro-N-[(4-methylpyridin-3-yl)methyl]pyridine-3-carboxamide]	91%
CCOc1c(F)cc(C(=O)NCc2cnccc2C)cc1F [Example 72, 4-ethoxy-3,5-difluoro-N-[(4-methylpyridin-3-yl)methyl]benzamide]	87%
Cc1c(F)cncc1CNC(=O)c1cnc(C2CC2(F)F)c(F)c1 (stereo not shown) [Example 103, 6-(2,2-difluorocyclopropyl)-5-fluoro-N-[(5-fluoro-4-methylpyridin-3-yl)methyl]pyridine-3-carboxamide]	92%
O=C(NCc1cnccc1OC1CC1)c1cnc(OC(F)F)c(F)c1 [Example 14, N-{[4-(cyclopropyloxy)-pyridin-3-yl]methyl}-6-(difluoromethoxy)-5-fluoropyridine-3-carboxamide]	96%
COc1ccncc1CNC(=O)c1ccc(OC(F)(F)F)c(F)c1 [Example 8, 3-fluoro-N-[(4-methoxypyridin-3-yl)methyl]-4-(trifluoromethoxy)-benzamide]	95%
Cc1c(F)cncc1CNC(=O)c1cnc(C(C)(F)F)c(F)c1 [Example 94, 6-(1,1-difluoroethyl)-5-fluoro-N-[(5-fluoro-4-methylpyridin-3-yl)methyl]pyridine-3-carboxamide]	91%
CC(C)Oc1ncncc1CNC(=O)c1cnc(OC(F)F)c(F)c1 [Example 20, 6-(difluoromethoxy)-5-fluoro-N-({4-[(propan-2-yl)oxy]pyrimidin-5-yl}methyl)pyridine-3-carboxamide]	94%
Cc1c(F)cncc1CNC(=O)c1cc(F)c(OC(F)F)c(F)c1 [Example 68, 4-(difluoromethoxy)-3,5-difluoro-N-[(5-fluoro-4-methylpyridin-3-yl)methyl]benzamide]	93%
O=C(NCc1cncnc1C1CC1(F)F)c1cnc(OC(F)F)c(F)c1 (stereo not shown) [Example 37, N-{[4-(2,2-difluorocyclopropyl)-pyrimidin-5-yl]methyl}-6-(difluoromethoxy)-5-fluoropyridine-3-carboxamide]	84%
COc1ncncc1CNC(=O)c1ccc(OC(F)(F)F)cc1 [Example 26, N-[(4-methoxypyrimidin-5-yl)methyl]-4-(trifluoromethoxy)-benzamide]	93%
COc1ccncc1CNC(=O)c1cnc(OC(F)F)c(Cl)c1 [Example 17, 5-chloro-6-(difluoromethoxy)-N-[(4-methoxypyridin-3-yl)methyl]pyridine-3-carboxamide]	98%

SMILES	inhibition at 10 µM
COc1ncc(C(=O)NCc2cnccc2C)cc1Cl [Example 66, 5-chloro-6-methoxy-N-[(4-methylpyridin-3-yl)methyl]pyridine-3-carboxamide]	84%
COc1ncncc1CNC(=O)c1ccc(OC(F)(F)F)c(F)c1 [Example 22, 3-fluoro-N-[(4-methoxypyrimidin-5-yl)methyl]-4-(trifluoromethoxy)benzamide]	95%
CCOc1ncc(C(=O)NCc2cncnc2OC)cc1Cl [Example 85, 5-chloro-6-ethoxy-N-[(4-methoxypyrimidin-5-yl)methyl]pyridine-3-carboxamide]	87%
O=C(NCc1cncnc1OC1CC1)c1cnc(OC(F)F)c(Cl)c1 [Example 78, 5-chloro-N-{[4-(cyclopropyloxy)pyrimidin-5-yl]methyl}-6-(difluoromethoxy)pyridine-3-carboxamide]	94%
O=C(NCc1cncnc1OC1CC(F)(F)C1)c1cnc(OC(F)F)c(F)c1 [Example 32, N-({4-[(3,3-difluorocyclobutyl)-oxy]pyrimidin-5-yl}methyl)-6-(difluoromethoxy)-5-fluoropyridine-3-carboxamide]	96%
COc1ccc(C(=O)NCc2cnccc2C)cc1F [Example 60, 3-fluoro-4-methoxy-N-[(4-methylpyridin-3-yl)methyl]benzamide]	88%
COc1ccncc1CNC(=O)c1cnc(OC(F)(F)F)c(F)c1 [Example 34, 5-fluoro-N-[(4-methoxypyridin-3-yl)methyl]-6-(trifluoromethoxy)pyridine-3-carboxamide]	97%
Cc1ccncc1CNC(=O)c1csc(C2CC2)c1 [Example 56, 5-cyclopropyl-N-[(4-methylpyridin-3-yl)methyl]thiophene-3-carboxamide]	93%
Cc1ccncc1CNC(=O)c1ccc(C(F)(F)F)c(F)c1 [Example 53, 3-fluoro-N-[(4-methylpyridin-3-yl)methyl]-4-(trifluoromethyl)-benzamide]	91%
CC(F)(F)c1ccncc1CNC(=O)c1cnc(OC(F)F)c(F)c1 [Example 43, N-{[4-(1,1-difluoroethyl)pyridin-3-yl]methyl}-6-(difluoromethoxy)-5-fluoropyridine-3-carboxamide]	90%
Cc1ccncc1CNC(=O)c1cc(F)c(OC(F)F)c(F)c1 [Example 55, 4-(difluoromethoxy)-3,5-difluoro-N-[(4-methylpyridin-3-yl)methyl]benzamide]	91%
Cc1ccncc1CNC(=O)c1ccc(C(F)F)c(F)c1 [Example 58, 4-(difluoromethyl)-3-fluoro-N-[(4-methylpyridin-3-yl)methyl]benzamide]	85%
O=C(NCc1cncnc1OC1CC1)c1cc(F)c(OC(F)F)c(F)c1 [Example 76, N-{[4-(cyclopropyloxy)-pyrimidin-5-yl]methyl}-4-(difluoromethoxy)-3,5-difluorobenzamide]	95%
Cc1c(F)cncc1CNC(=O)c1ccc(OC(F)F)c(F)c1 [Example 69, 4-(difiuoromethoxy)-3-fluoro-N-[(5-fluoro-4-methylpyridin-3-yl)methyl]benzamide]	94%
COc1ccncc1CNC(=O)c1ccc(OC(F)(F)F)cc1 [Example 7, N-[(4-methoxypyridin-3-yl)methyl]-4-(trifluoromethoxy)benzamide]	91%
COc1ncncc1CNC(=O)c1cnc(OC(F)(F)F)c(F)c1 [Example 33, 5-fluoro-N-[(4-methoxypyrimidin-5-yl)methyl]-6-(trifluoromethoxy)pyridine-3-carboxamide]	94%
Cc1ccncc1CNC(=O)c1ccc(OC(F)(F)F)c(F)c1 [Example 49, 3-fluoro-N-[(4-methylpyridin-3-yl)methyl]-4-(trifluoromethoxy)-benzamide]	94%
